# Reference: US7691572B2, “Method and kit for detecting resistance to antiviral drugs” (priority 1998, dated 2010)
# pIC50: −log10 of the molar value.
# Target: HIV-1 RT (Human immunodeficiency virus type 1 group M subtype B, UniProt P04585)
# Assay: Amp-RT assay, AZT-TP and other NRTI-TPs, reference viruses
# Format: biochemical
# Set-up: The susceptibility of HIV-1 RT activity from viral isolates or plasma samples; made in house
structure (smiles),measurement,setting,value
"Cc1cn([C@H]2C[C@H](N=[N+]=[N-])[C@@H](COP(=O)(O)OP(=O)(O)OP(=O)(O)O)O2)c(=O)[nH]c1=O [AZT-TP, AZT-triphosphate]",% inhibition (SEM),"1 μM AZT-TP, HIV-1HXB2, WT",98 (±2) %
same,pIC50,WT HIV-1HXB2,6.30
same,IC90,WT HIV-1HXB2,900 nM
